# Experimental data published in US8420331B2, “Type IV collagen-like immunoreactive peptide” (priority 2006, dated 2013).
# What was measured:
# [1] = tested on: antibody (IgG) in urine of nephritis patients; assay: Screening of antigenic site on alpha 5 chain NC1: ELISA with synthetic peptides as coating antigen; format: binding, human
# Procedure: A preliminary test was carried out, using the ELISA method, in which NC1 as the antigen for coating was replaced with synthetic peptides. The measurement conditions were: antigen concentration: 10 μg/mL (10 mM PBS), 100 μL/well; blocking agent: Block Ace (manufactured by Dainippon Pharmaceutical Co., Ltd.) diluted to 25%, 250 μL/well; urine: human 20- to 100-fold dilution; second antibody (enzyme-labeled anti-human IgG antibody): ×800; and substrate solution: TMB (+) (manufactured by DAKO Corp). The specimen was diluted to 20- to 100-fold, unlike the original fourfold dilution of NC1 as the antigen. […] Accordingly, a main test was carried out using NC1 of the alpha 5 chain. Note that 301 contained the amino acid sequence about 5 to 18 from the N-terminus on the alpha 3 chain corresponding to Goodpasture syndrome specified by computer software. Furthermore, it was possible to check alpha chains other than the alpha 5 chain, such as 301. […] Therefore, it was possible to use both antigens as nephritis detection reagents.
# A test was carried out using the ELISA method, in which NC1 as the antigen for coating was replaced with synthetic peptides, under the same conditions as those described above.
# The peptides of the alpha 5 chain were prepared as described below. Fifteen synthetic peptides were prepared from the whole region of the alpha 5 chain NC1, in which a first unit of 20 amino acid residues was selected from the N-terminus, and subsequent units, each containing 20 amino acid residues, were selected with 5 amino acid residues overlapping each other (hereinafter referred to as yp01 to yp15 (H4NA5-1 to 5-15 in FIG. 6), yp15 containing more than 20 amino acid residues). […] Thus, the five peptides were antigenic sites common to the specimen A, the specimen B, and IgA nephropathy which were derived from different diseases. As described above, bovine glomerulus-derived NC1 and triple helix have substantially the same reactivity with nephritis urine specimens, and both are considered to be common antigens to nephritis. Thus, the triple helix (7S and/or the central helical domain) of the alpha 5 chain and peptides thereof can be considered as immunoreactive peptide candidates. The whole alpha 5 chain may be used as an antigen. However, in such a case, a time-consuming process is required.
# rabbits (female) [2] = assay: ELISA antibody level in serum of peptide-immunised rabbits (peptide-coated microplate); format: in vivo; conditions: rabbit serum
# Procedure: (§1) Peptides 0.3 mg/mL (0.15 mg only for initial administration) together with the same amount of FCA were intradermally administered to rabbits (female) once in two weeks, four times in total.
# Furthermore, in the ELISA method in which the microplate was coated with the peptide yp12 (SEQ ID NO: 6) (10 μg/mL), in 7 weeks after the initial administration, at a dilution of 32,000 fold, the antibody level in serum reached 3.00, which is in the vicinity of the upper limit of measurement of the absorptiometer.
# rabbits (female) [3] = assay: Nephritis model using immunoreactive peptide as inducer, rabbits, urinary protein; format: in vivo, rabbit; conditions: peptide 0.3 mg/mL with FCA intradermally once in two weeks, four times
# Procedure: The selected peptides can be used as an inducer of nephritis independently and/or in combination with each other. Although yp08 (SEQ ID NO: 8) and yp12 (SEQ ID NO: 6) were used as peptides and rabbits and guinea pigs were used as animals, the peptides, animals, and administration methods are not limited thereto.
# as §1
# guinea pigs (female) = assay: ELISA antibody level in serum of peptide-immunised guinea pigs (yp12-coated microplate); format: in vivo; conditions: guinea pig serum, dilution 8,000 fold, 7 weeks after initial administration
# Procedure: Peptides 0.1 mg/mL together with the same amount of FCA were intradermally administered to guinea pigs (female) once in two weeks, four times in total.
# Furthermore, in the ELISA method in which the microplate was coated with the peptide yp12 (SEQ ID NO: 6) (10 μg/mL), in 7 weeks after the initial administration, at a dilution of 8,000 fold, the antibody level in guinea pig serum reached 3.00, which is in the vicinity of the upper limit of measurement of the absorptiometer. Furthermore, intra-abdominal administration to rats or mice of these anti-immunoreactive peptide antibodies (antiserum) enabled production of models of nephritis which was weak, close to that of human, and slowly progressive, unlike the administration of conventional anti-NC1 antibodies (antiserum).
# [4] = specimen A (chronic nephritis: No. 38)
# [5] = specimen B (diabetic nephritis: No. 42)
Substance,reaction with urine specimen ([1]; IgA nephropathy),"reaction with urine specimen [1, 4]","reaction with urine specimen [1, 5]","ELISA antibody level in serum (A450 nm) (rabbits (female) [2]; dilution 32,000 fold, 7 weeks after initial administration)",urinary protein (rabbits (female) [3]),ELISA antibody level in serum (A450 nm) (guinea pigs (female)),"ELISA antibody level in serum (A450 nm) (rabbits (female) [2]; dilution ×8,000)"
"GWDSL WIGYS FMMHT SAGAE (GWDSLWIGYSFMMHTSAGAE; peptide with homology to Type IV collagen) [yp10, synthetic 20-residue peptide from human type IV collagen alpha 5 chain NC1]",strongly reacted,strongly reacted,strongly reacted,–,–,–,–
"GRGTC NYYAN SYSFW LATVD (GRGTCNYYANSYSFWLATVD; peptide with homology to Type IV collagen) [yp13, synthetic 20-residue peptide from human type IV collagen alpha 5 chain NC1]",strongly reacted,strongly reacted,strongly reacted,–,–,–,–
"STMPF MFCNI NNVCN FASRN (STMPFMFCNINNVCNFASRN; peptide with homology to Type IV collagen) [yp05, synthetic 20-residue peptide from human type IV collagen alpha 5 chain NC1]",strongly reacted,strongly reacted,strongly reacted,–,–,–,–
"SCLEE FRSAP FIECH GRGTC (SCLEEFRSAPFIECHGRGTC; peptide with homology to Type IV collagen) [yp12, synthetic 20-residue peptide from human type IV collagen alpha 5 chain NC1]",strongly reacted,strongly reacted,strongly reacted,3.00,+2,3.00,–
"PFISR CAVCE APAVV IAVHS (PFISRCAVCEAPAVVIAVHS; peptide with homology to Type IV collagen) [yp08, synthetic 20-residue peptide from human type IV collagen alpha 5 chain NC1]",strongly reacted,strongly reacted,strongly reacted,–,+2,–,3.00
